tested on: DT; test: Cell proliferation IC50 assay (Cell Titer GLO), DT cells; format: cell-based; details: Mus musculus; Table 7; DT cells (BaF3 with EGFR mutant), 72 h
Method: (§1) IC50 of compounds in the present invention was determined by Cell Titer GLO reagent from Promega. The procedures are as follows:
(§2) Tumor cells were cultured in specified medium in an incubator at 37° C. and 5% CO2. The cells were passaged periodically. Cells at the logarithmic growth phase were collected for plating at a density of 2000-4000 cells/well. The next day, the compounds of the present invention were serially diluted and added to the cells, with DMSO being the negative control and the culture media without cells being the blank control. The plate was incubated in the incubator for 72 h. The cell viability assay was performed by adding the detection reagents to the cell culture media according to Cell Titer GLO reagent instructions and detecting luminescent signals on an EnVision microplate reader (PerkinElmer).
(§3) Inhibition of cell growth by the compounds of the present invention was plotted by Prism Graphpad software for statistically calculating the IC50 of the compound of the present invention.

| SMILES | IC50 |
| --- | --- |
| CCc1cc(Nc2ncc(Cl)c(Nc3ccccc3P(C)(C)=O)n2)c(OC)cc1N1CCC(N2CCN(CCC#Cc3cccc4c3CN(C3CCC(=O)NC3=O)C4=O)CC2)CC1 (single isomer, unassigned) [Example E4] | 5.5 nM |
| COc1cc(N2CCC(N3CCN(CCC#Cc4cccc5c4CN(C4CCC(=O)NC4=O)C5=O)CC3)CC2)c(C2CC2)cc1Nc1ncc(Cl)c(Nc2ccccc2P(C)(C)=O)n1 (stereo not shown) [Example E13] | 7.7 nM |

tested on: BaF3 (EGFR WT); test: Cell proliferation IC50 assay (Cell Titer GLO), BaF3 WT cells; format: cell-based; details: Mus musculus, Ba/F3 EGFR, Table 5, 10 ng/ml EGF, 72 h
Summary of the method: (§4)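 Growth inhibition is measured over 72 h of continuous compound treatment in cells seeded at 2000-4000 per well.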

| SMILES | IC50 |
| --- | --- |
| CCc1cc(Nc2ncc(Cl)c(Nc3ccccc3P(C)(C)=O)n2)c(OC)cc1N1CCC(N2CCN(CCC#Cc3cccc4c3CN(C3CCC(=O)NC3=O)C4=O)CC2)CC1 (single isomer, unassigned) [Example E4] | > 4000 nM |
| COc1cc(N2CCC(N3CCN(CCC#Cc4cccc5c4CN(C4CCC(=O)NC4=O)C5=O)CC3)CC2)c(C2CC2)cc1Nc1ncc(Cl)c(Nc2ccccc2P(C)(C)=O)n1 (stereo not shown) [Example E13] | > 4000 nM |

tested on: human EGFR-DTC; test: EGFR protein abundance assay (Western blotting), EGFR-DTC; format: cell-based; details: Ba/F3 cells expressing human EGFR-DTC, 24 h, Western blot
Method: (§5) Mouse Ba/F3 cells stably expressing human EGFR-DTC, EGFR-LTC, or EGFR-DC were transferred to Petri dishes with RPMI-1640 medium (Gibco, Product No. 11875093) containing 10% fetal bovine serum (FBS, Biological Industries, Product No. 04-001-1A) and 0.1% penicillin/streptomycin (P/S) and incubated in an aseptic incubator at 37° C., 95% relative humidity, and 5% CO2. Cells at the logarithmic growth phase were taken and seeded at a density of 50000 cells/well in 12-well plates (Corning, Product No. 3513) containing 1 mL of medium per well. After 24 h, the compounds disclosed herein with different concentrations were added to the wells at a final DMSO concentration of 0.1%. After 24 h, cells were lysed in SDS lysis buffer (1.45 g of SDS, 0.2 g of Tris base, 6 mL of glycerol, 20 mg of bromophenol blue, 310 mg DTT; brought to 40 mL with d2H2O), and the EGFR levels were detected and analyzed by Western Blotting (immunoblotting) using standard molecular biological techniques. Cell lysates were boiled at 95° C. for 8 min, mixed and centrifuged. The total cell proteins in the lysates were subjected to SDS-PAGE (GenScript, Product No. M00654), transferred to NC membranes (GE, Product No. 1060002) by blotting, incubated in a blocking buffer (TAKARA, Product No. T7131A) at room temperature for 60 min, and co-incubated overnight at 4° C. with the following primary antibodies: anti-EGFR (#4267S, 1:1000), anti-phoso-EGFR (#3777S, 1:1000), anti-GAPDH (#5174S, 1:10000), anti-Actin (#5125 S, 1:10000) (all purchased from Cell Signaling Technology). The samples were washed three times with TBST at room temperature, each for 10 min, and then incubated for 60 minutes in a blocking buffer containing a secondary antibody (#7074S, 1:10000, purchased from Cell Signaling Technology) at room temperature. The samples were washed three times with TBST at room temperature, each for 10 min. Chemiluminescent substrates were added, and an Azure c300 system was used for imaging.

| SMILES | DC50 | EGFR-DTC Dmax |
| --- | --- | --- |
| CCc1cc(Nc2ncc(Cl)c(Nc3ccccc3P(C)(C)=O)n2)c(OC)cc1N1CCC(N2CCN(CCC#Cc3cccc4c3CN(C3CCC(=O)NC3=O)C4=O)CC2)CC1 (single isomer, unassigned) [Example E4] | 2.27 nM | 96% |

tested on: BaF3 (EGFR L858R/T790M/C797S); test: Cell proliferation IC50 assay (Cell Titer GLO), BaF3 LTC cells; format: cell-based; details: Mus musculus, Ba/F3 EGFR, Table 5, 72 h
Summary of the method: as §4

| SMILES | IC50 |
| --- | --- |
| CCc1cc(Nc2ncc(Cl)c(Nc3ccccc3P(C)(C)=O)n2)c(OC)cc1N1CCC(N2CCN(CCC#Cc3cccc4c3CN(C3CCC(=O)NC3=O)C4=O)CC2)CC1 (single isomer, unassigned) [Example E4] | 37.6 nM |
| COc1cc(N2CCC(N3CCN(CCC#Cc4cccc5c4CN(C4CCC(=O)NC4=O)C5=O)CC3)CC2)c(C2CC2)cc1Nc1ncc(Cl)c(Nc2ccccc2P(C)(C)=O)n1 (stereo not shown) [Example E13] | 66.5 nM |

tested on: BaF3 (EGFR Del19/T790M/C797S); test: Cell proliferation IC50 assay (Cell Titer GLO), BaF3 DTC cells; format: cell-based; details: Mus musculus, Ba/F3 EGFR-Del19/T790M/C797S, Table 5, 72 h
Summary of the method: as §4

| SMILES | IC50 |
| --- | --- |
| CCc1cc(Nc2ncc(Cl)c(Nc3ccccc3P(C)(C)=O)n2)c(OC)cc1N1CCC(N2CCN(CCC#Cc3cccc4c3CN(C3CCC(=O)NC3=O)C4=O)CC2)CC1 (single isomer, unassigned) [Example E4] | 6.6 nM |
| COc1cc(N2CCC(N3CCN(CCC#Cc4cccc5c4CN(C4CCC(=O)NC4=O)C5=O)CC3)CC2)c(C2CC2)cc1Nc1ncc(Cl)c(Nc2ccccc2P(C)(C)=O)n1 (stereo not shown) [Example E13] | 19.6 nM |

tested on: A431; test: Cell proliferation IC50 assay (Cell Titer GLO), A431 cells; format: cell-based; details: Homo sapiens, A-431; Table 5; A431, 72 h; read-out: A431 IC50
Summary of the method: as §4

| SMILES | IC50 |
| --- | --- |
| CCc1cc(Nc2ncc(Cl)c(Nc3ccccc3P(C)(C)=O)n2)c(OC)cc1N1CCC(N2CCN(CCC#Cc3cccc4c3CN(C3CCC(=O)NC3=O)C4=O)CC2)CC1 (single isomer, unassigned) [Example E4] | 2060 nM |
| COc1cc(N2CCC(N3CCN(CCC#Cc4cccc5c4CN(C4CCC(=O)NC4=O)C5=O)CC3)CC2)c(C2CC2)cc1Nc1ncc(Cl)c(Nc2ccccc2P(C)(C)=O)n1 (stereo not shown) [Example E13] | > 4000 nM |

biological target: T1, BaF3 (EGFR Del19/C797S) (Homo sapiens, UniProt P00533, C797S, cells depend on it, form not given); test: Cell proliferation IC50 assay (Cell Titer GLO), BaF3 DC cells; format: cell-based, mouse; details: Table 7, 72 h
T1 construct: BaF3 (EGFR Del19/C797S)|DC|RPMI1640 + 10% FBS
Summary of the method: as §4

T1 sequence (P00533 with tags, fused parts or gaps DEL746-750/C797S, form open): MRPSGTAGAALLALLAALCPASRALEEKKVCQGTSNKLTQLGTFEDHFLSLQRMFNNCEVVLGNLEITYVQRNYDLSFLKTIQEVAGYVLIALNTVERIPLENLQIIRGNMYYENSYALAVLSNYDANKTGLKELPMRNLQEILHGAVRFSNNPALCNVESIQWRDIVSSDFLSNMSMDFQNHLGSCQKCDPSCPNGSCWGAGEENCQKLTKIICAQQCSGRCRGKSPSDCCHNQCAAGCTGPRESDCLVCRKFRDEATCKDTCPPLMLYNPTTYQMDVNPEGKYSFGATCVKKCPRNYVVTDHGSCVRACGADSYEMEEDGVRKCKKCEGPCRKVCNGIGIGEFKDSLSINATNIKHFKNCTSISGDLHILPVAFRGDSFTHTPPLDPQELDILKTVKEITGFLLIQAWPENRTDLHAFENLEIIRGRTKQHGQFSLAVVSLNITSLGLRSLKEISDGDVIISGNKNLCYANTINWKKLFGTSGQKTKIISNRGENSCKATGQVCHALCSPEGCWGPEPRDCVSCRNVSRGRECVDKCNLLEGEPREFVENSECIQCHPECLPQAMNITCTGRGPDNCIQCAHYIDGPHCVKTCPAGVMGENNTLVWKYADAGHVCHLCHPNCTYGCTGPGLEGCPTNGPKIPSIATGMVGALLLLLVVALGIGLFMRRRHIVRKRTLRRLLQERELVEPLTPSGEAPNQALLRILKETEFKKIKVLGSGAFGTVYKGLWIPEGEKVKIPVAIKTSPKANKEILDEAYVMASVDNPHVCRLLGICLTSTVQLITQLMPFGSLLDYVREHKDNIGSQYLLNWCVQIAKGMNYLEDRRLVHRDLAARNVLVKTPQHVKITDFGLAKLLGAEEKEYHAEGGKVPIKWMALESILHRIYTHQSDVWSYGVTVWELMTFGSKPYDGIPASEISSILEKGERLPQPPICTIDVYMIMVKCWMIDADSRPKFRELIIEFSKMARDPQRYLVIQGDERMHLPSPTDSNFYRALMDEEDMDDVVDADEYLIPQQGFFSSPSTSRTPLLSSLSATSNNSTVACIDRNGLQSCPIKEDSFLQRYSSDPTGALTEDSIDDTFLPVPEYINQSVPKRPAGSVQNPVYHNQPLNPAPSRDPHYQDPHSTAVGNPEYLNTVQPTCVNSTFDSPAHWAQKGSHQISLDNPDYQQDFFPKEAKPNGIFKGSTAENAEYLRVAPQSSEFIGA

| SMILES | IC50 |
| --- | --- |
| CCc1cc(Nc2ncc(Cl)c(Nc3ccccc3P(C)(C)=O)n2)c(OC)cc1N1CCC(N2CCN(CCC#Cc3cccc4c3CN(C3CCC(=O)NC3=O)C4=O)CC2)CC1 (single isomer, unassigned) [Example E4] | 4.8 nM |
| COc1cc(N2CCC(N3CCN(CCC#Cc4cccc5c4CN(C4CCC(=O)NC4=O)C5=O)CC3)CC2)c(C2CC2)cc1Nc1ncc(Cl)c(Nc2ccccc2P(C)(C)=O)n1 (stereo not shown) [Example E13] | 20.4 nM |

biological target: BaF3 (EGFR L858R) (Homo sapiens, UniProt P00533, L858R, cells depend on it); test: Cell proliferation IC50 assay (Cell Titer GLO), BaF3 L cells; format: cell-based, mouse; details: Table 7, 72 h
Method: as §1, §2, §3

Sequence of BaF3 (EGFR L858R) (P00533 whole entry L858R): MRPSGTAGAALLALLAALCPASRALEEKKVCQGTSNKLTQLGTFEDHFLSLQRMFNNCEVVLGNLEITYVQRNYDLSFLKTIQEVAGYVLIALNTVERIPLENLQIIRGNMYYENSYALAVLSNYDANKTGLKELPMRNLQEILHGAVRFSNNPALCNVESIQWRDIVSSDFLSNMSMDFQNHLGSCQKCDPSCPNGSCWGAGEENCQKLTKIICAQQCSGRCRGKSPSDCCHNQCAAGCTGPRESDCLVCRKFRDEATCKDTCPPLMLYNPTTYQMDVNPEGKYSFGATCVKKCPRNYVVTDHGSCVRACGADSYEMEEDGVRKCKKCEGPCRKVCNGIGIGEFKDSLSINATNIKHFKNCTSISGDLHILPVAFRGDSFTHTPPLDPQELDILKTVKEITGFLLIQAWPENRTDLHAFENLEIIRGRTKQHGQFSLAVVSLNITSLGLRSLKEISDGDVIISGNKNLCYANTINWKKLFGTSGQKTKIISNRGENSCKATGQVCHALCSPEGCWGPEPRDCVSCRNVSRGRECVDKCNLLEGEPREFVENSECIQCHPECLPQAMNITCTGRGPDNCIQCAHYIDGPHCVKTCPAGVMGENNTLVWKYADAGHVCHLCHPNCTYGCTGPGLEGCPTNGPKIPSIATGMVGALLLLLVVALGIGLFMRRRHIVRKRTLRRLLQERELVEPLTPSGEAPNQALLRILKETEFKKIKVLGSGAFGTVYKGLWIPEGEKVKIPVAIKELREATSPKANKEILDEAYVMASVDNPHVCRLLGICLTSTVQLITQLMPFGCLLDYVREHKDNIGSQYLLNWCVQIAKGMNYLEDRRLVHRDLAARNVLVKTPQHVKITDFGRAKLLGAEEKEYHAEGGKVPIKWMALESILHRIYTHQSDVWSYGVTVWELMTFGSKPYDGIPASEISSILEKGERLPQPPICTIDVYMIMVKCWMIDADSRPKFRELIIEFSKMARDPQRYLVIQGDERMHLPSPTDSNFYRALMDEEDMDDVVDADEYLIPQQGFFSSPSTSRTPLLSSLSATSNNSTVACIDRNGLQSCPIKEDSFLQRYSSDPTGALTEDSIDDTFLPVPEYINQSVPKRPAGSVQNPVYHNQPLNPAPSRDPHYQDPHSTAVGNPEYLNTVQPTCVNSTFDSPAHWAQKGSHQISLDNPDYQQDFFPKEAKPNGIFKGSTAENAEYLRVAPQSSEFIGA

| SMILES | GI50 |
| --- | --- |
| CCc1cc(Nc2ncc(Cl)c(Nc3ccccc3P(C)(C)=O)n2)c(OC)cc1N1CCC(N2CCN(CCC#Cc3cccc4c3CN(C3CCC(=O)NC3=O)C4=O)CC2)CC1 (single isomer, unassigned) [Example E4] | 6.7 nM |
| COc1cc(N2CCC(N3CCN(CCC#Cc4cccc5c4CN(C4CCC(=O)NC4=O)C5=O)CC3)CC2)c(C2CC2)cc1Nc1ncc(Cl)c(Nc2ccccc2P(C)(C)=O)n1 (stereo not shown) [Example E13] | 23.5 nM |

tested on: human EGFR-DC; test: EGFR protein abundance assay (Western blotting), EGFR-DC; format: cell-based; details: Ba/F3 cells expressing human EGFR-DC, 24 h, Western blot
Method: as §5

| SMILES | DC50 | EGFR-DC Dmax |
| --- | --- | --- |
| CCc1cc(Nc2ncc(Cl)c(Nc3ccccc3P(C)(C)=O)n2)c(OC)cc1N1CCC(N2CCN(CCC#Cc3cccc4c3CN(C3CCC(=O)NC3=O)C4=O)CC2)CC1 (single isomer, unassigned) [Example E4] | 18.6 nM | 75% |

biological target: BaF3 (EGFR L858R/C797S) (Homo sapiens, UniProt P00533, C797S/L858R, cells depend on it); test: Cell proliferation IC50 assay (Cell Titer GLO), BaF3 LC cells; format: cell-based, mouse; details: Table 7, 72 h
Method: as §1, §2, §3

Sequence of BaF3 (EGFR L858R/C797S) (P00533 whole entry C797S/L858R): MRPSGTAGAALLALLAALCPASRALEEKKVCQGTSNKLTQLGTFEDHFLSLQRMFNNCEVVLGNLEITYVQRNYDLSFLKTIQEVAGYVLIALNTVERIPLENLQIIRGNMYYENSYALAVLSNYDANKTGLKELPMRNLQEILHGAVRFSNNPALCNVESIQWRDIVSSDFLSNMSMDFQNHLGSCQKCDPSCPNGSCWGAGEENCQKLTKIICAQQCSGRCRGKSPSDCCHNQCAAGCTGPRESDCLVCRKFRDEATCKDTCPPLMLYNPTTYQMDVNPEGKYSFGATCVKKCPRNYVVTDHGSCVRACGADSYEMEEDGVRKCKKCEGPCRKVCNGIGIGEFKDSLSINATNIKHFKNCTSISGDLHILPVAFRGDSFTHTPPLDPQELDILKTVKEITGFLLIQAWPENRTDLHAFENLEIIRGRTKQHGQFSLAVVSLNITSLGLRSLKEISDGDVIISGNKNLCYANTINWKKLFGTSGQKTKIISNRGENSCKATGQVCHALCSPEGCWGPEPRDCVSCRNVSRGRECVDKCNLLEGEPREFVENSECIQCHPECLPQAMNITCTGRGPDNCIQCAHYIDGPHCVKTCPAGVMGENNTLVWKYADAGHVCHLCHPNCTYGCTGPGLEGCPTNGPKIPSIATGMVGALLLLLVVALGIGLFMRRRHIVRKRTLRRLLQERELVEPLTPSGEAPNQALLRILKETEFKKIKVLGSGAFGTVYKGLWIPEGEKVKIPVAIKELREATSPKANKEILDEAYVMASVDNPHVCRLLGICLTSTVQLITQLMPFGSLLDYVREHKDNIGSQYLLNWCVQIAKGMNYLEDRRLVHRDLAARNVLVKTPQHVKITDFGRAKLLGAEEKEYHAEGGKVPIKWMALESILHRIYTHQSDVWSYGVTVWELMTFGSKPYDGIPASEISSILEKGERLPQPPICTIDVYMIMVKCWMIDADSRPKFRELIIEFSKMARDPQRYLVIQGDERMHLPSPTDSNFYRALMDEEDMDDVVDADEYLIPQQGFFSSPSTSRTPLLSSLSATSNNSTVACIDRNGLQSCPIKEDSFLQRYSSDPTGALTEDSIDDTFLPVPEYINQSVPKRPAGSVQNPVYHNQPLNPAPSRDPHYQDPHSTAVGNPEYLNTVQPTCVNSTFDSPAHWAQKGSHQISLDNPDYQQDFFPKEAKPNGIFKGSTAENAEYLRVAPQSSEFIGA

| SMILES | GI50 |
| --- | --- |
| CCc1cc(Nc2ncc(Cl)c(Nc3ccccc3P(C)(C)=O)n2)c(OC)cc1N1CCC(N2CCN(CCC#Cc3cccc4c3CN(C3CCC(=O)NC3=O)C4=O)CC2)CC1 (single isomer, unassigned) [Example E4] | 23 nM |
| COc1cc(N2CCC(N3CCN(CCC#Cc4cccc5c4CN(C4CCC(=O)NC4=O)C5=O)CC3)CC2)c(C2CC2)cc1Nc1ncc(Cl)c(Nc2ccccc2P(C)(C)=O)n1 (stereo not shown) [Example E13] | 128 nM |

biological target: BaF3 (EGFR Del19) (Homo sapiens, UniProt P00533, cells depend on it, form not given); test: Cell proliferation IC50 assay (Cell Titer GLO), BaF3 D cells; format: cell-based, mouse; details: Table 7, 72 h
Method: as §1, §2, §3

Sequence of BaF3 (EGFR Del19) (P00533 with tags, fused parts or gaps DEL746-750): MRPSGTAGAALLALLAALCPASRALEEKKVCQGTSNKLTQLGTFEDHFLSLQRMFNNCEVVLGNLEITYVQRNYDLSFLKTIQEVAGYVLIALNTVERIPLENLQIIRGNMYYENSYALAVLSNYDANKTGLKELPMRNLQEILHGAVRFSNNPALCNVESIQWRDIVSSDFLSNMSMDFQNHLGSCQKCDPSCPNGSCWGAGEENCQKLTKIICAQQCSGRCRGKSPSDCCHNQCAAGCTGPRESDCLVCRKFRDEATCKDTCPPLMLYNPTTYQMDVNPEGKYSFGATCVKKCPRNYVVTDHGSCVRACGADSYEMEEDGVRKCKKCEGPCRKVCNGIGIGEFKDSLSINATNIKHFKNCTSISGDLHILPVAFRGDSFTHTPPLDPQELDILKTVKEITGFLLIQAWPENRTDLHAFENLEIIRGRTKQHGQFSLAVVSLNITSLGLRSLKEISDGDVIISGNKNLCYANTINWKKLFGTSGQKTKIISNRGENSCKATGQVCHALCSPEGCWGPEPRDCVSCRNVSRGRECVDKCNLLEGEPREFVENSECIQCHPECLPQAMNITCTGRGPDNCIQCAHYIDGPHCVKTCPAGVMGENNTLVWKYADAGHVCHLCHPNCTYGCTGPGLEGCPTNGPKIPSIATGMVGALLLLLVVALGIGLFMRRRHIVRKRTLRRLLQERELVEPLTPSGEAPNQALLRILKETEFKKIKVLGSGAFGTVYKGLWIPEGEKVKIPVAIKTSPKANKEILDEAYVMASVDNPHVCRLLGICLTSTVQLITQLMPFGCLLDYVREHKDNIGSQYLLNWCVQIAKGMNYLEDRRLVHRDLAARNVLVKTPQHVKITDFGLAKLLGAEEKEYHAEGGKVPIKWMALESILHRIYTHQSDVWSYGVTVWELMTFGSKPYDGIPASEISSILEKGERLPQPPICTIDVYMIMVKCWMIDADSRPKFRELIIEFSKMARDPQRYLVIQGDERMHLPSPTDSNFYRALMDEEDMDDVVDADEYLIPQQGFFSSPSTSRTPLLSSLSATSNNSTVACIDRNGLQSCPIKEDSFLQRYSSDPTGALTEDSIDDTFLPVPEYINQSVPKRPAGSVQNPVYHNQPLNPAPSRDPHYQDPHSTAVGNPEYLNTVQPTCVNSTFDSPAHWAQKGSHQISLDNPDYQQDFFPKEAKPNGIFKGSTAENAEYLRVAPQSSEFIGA

| SMILES | GI50 |
| --- | --- |
| CCc1cc(Nc2ncc(Cl)c(Nc3ccccc3P(C)(C)=O)n2)c(OC)cc1N1CCC(N2CCN(CCC#Cc3cccc4c3CN(C3CCC(=O)NC3=O)C4=O)CC2)CC1 (single isomer, unassigned) [Example E4] | 2.1 nM |
| COc1cc(N2CCC(N3CCN(CCC#Cc4cccc5c4CN(C4CCC(=O)NC4=O)C5=O)CC3)CC2)c(C2CC2)cc1Nc1ncc(Cl)c(Nc2ccccc2P(C)(C)=O)n1 (stereo not shown) [Example E13] | 6.1 nM |

biological target: T2, human EGFR-LTC (Homo sapiens, UniProt P00533, C797S/L858R/T790M); test: EGFR protein abundance assay (Western blotting), EGFR-LTC; format: cell-based; details: Ba/F3 cells expressing human EGFR-LTC, 24 h, Western blot
T2 construct: expressed in transfected cells
Method: as §5

| SMILES | DC50 |
| --- | --- |
| CCc1cc(Nc2ncc(Cl)c(Nc3ccccc3P(C)(C)=O)n2)c(OC)cc1N1CCC(N2CCN(CCC#Cc3cccc4c3CN(C3CCC(=O)NC3=O)C4=O)CC2)CC1 (single isomer, unassigned) [Example E4] | 6.26 nM |

same assay, conditions: BaF3, Ba/F3 cells expressing human EGFR-LTC, 24 h, Western blot

| SMILES | Dmax |
| --- | --- |
| CCc1cc(Nc2ncc(Cl)c(Nc3ccccc3P(C)(C)=O)n2)c(OC)cc1N1CCC(N2CCN(CCC#Cc3cccc4c3CN(C3CCC(=O)NC3=O)C4=O)CC2)CC1 (single isomer, unassigned) [Example E4] | 91% |

tested on: BaF3 patent; test: Cell proliferation IC50 assay (Cell Titer GLO), BaF3 parental cells; format: cell-based; details: Mus musculus, Table 5, 10 ng/ml mIL3, 72 h
Method: as §1, §2, §3

| SMILES | IC50 |
| --- | --- |
| CCc1cc(Nc2ncc(Cl)c(Nc3ccccc3P(C)(C)=O)n2)c(OC)cc1N1CCC(N2CCN(CCC#Cc3cccc4c3CN(C3CCC(=O)NC3=O)C4=O)CC2)CC1 (single isomer, unassigned) [Example E4] | > 4000 nM |
| COc1cc(N2CCC(N3CCN(CCC#Cc4cccc5c4CN(C4CCC(=O)NC4=O)C5=O)CC3)CC2)c(C2CC2)cc1Nc1ncc(Cl)c(Nc2ccccc2P(C)(C)=O)n1 (stereo not shown) [Example E13] | > 4000 nM |

tested on: LT; test: Cell proliferation IC50 assay (Cell Titer GLO), LT cells; format: cell-based; details: Mus musculus; Table 7; LT cells (BaF3 with EGFR mutant), 72 h
Method: as §1, §2, §3

| SMILES | IC50 |
| --- | --- |
| CCc1cc(Nc2ncc(Cl)c(Nc3ccccc3P(C)(C)=O)n2)c(OC)cc1N1CCC(N2CCN(CCC#Cc3cccc4c3CN(C3CCC(=O)NC3=O)C4=O)CC2)CC1 (single isomer, unassigned) [Example E4] | 7.4 nM |
| COc1cc(N2CCC(N3CCN(CCC#Cc4cccc5c4CN(C4CCC(=O)NC4=O)C5=O)CC3)CC2)c(C2CC2)cc1Nc1ncc(Cl)c(Nc2ccccc2P(C)(C)=O)n1 (stereo not shown) [Example E13] | 16.5 nM |
